# Patent US8802700B2 (Vertex Pharmaceuticals Incorporated, priority 2010, dated 2014)
# Target: T1, ΔF508-CFTR (Homo sapiens, UniProt P13569, DEL508-508)
# T1 construct: expressed in transfected cells
# Assay: Membrane potential optical assay (FRET voltage-sensor dyes, VIPR), identification of potentiator compounds
# Type: cell-based
# Conditions: Table 3; assay not given
# Text: The optical membrane potential assay utilized voltage-sensitive FRET sensors described by Gonzalez and Tsien (See Gonzalez, J. E. and R. Y. Tsien (1995) “Voltage sensing by fluorescence resonance energy transfer in single cells” Biophys J 69(4): 1272-80, and Gonzalez, J. E. and R. Y. Tsien (1997) “Improved indicators of cell membrane potential that use fluorescence resonance energy transfer” Chem Biol 4(4): 269-77) in combination with instrumentation for measuring fluorescence changes such as the Voltage/Ion Probe Reader (VIPR) (See […]. Oades, et al. (1999) “Cell-based assays and instrumentation for screening ion-channel targets” Drug Discov Today 4(9): 431-439). These voltage sensitive assays are based on the change in fluorescence resonant energy transfer (FRET) between the membrane-soluble, voltage-sensitive dye, DiSBAC2(3), and a fluorescent phospholipid, CC2-DMPE, which is attached to the outer leaflet of the plasma membrane and acts as a FRET donor. Changes in membrane potential (Vm) cause the negatively charged DiSBAC2(3) to redistribute across the plasma membrane and the amount of energy transfer from CC2-DMPE changes accordingly. The changes in fluorescence emission were monitored using VIPRTM II, which is an integrated liquid handler and fluorescent detector designed to conduct cell-based screens in 96- or 384-well microtiter plates. To identify potentiators of ΔF508-CFTR, a double-addition HTS assay format was developed. During the first addition, a Cl^--free medium with or without test compound was added to each well. […] (in mM) NaCl 160, KCl 4.5, CaCl2 2, MgCl2 1, HEPES 10, pH 7.4 with NaOH. • Chloride-free bath solution: Chloride salts in Bath Solution #1 are substituted with gluconate salts. • CC2-DMPE: Prepared as a 10 mM stock solution in DMSO and stored at -20° C. • DiSBAC2(3): Prepared as a 10 mM stock in DMSO and stored at -20° C. NIH3T3 mouse fibroblasts stably expressing ΔF508-CFTR are used for optical measurements of membrane potential. […] For all optical assays, the cells were seeded at 30,000/well in 384-well matrigel-coated plates and cultured for 2 hrs at 37° C. before culturing at 27° C. for 24 hrs. for the potentiator assay.
# T1 sequence (P13569 with tags, fused parts or gaps DEL508-508): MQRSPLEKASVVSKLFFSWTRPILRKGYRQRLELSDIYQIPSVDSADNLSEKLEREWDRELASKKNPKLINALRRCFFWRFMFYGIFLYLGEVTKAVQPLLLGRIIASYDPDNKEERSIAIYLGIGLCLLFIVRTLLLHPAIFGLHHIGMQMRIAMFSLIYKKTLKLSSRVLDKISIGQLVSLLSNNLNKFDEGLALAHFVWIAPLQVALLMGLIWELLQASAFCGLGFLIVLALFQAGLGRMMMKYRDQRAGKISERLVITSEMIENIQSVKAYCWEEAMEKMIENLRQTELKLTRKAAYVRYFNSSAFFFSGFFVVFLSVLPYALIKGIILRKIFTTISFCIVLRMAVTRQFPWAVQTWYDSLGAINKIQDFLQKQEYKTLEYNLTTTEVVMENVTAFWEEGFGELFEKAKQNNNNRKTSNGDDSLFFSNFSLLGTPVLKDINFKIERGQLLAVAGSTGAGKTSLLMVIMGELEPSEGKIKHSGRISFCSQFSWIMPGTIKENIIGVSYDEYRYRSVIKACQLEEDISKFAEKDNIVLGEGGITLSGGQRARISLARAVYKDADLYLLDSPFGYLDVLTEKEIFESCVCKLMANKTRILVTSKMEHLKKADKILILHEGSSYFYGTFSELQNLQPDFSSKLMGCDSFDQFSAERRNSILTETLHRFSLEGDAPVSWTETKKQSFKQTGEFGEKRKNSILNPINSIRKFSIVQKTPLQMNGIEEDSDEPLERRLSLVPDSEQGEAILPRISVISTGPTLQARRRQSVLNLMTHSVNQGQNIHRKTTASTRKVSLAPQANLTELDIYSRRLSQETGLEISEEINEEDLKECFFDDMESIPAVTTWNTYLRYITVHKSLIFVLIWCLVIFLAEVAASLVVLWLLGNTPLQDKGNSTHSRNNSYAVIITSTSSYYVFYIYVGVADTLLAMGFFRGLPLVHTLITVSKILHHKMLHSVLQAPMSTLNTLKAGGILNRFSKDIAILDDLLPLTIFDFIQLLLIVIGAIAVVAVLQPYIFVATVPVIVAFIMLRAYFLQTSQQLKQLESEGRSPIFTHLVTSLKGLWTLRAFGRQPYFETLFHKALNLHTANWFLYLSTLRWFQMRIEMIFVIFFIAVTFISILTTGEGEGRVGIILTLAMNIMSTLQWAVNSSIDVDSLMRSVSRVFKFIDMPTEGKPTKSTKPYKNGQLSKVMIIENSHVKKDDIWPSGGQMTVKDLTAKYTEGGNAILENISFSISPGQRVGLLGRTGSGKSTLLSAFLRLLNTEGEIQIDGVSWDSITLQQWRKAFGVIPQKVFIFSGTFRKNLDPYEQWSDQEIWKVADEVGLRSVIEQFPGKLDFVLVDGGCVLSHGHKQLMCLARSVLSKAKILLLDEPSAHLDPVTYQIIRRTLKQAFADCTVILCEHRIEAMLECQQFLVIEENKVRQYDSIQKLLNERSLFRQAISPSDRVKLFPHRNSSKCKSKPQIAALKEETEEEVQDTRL
row,EC50,SMILES
1,< 10 µM,"CCOC(=O)Nc1ccc(CC)c(NC(=O)c2c[nH]c3ccccc3c2=O)c1 [Compound 472, [4-ethyl-3-[(4-oxo-1H-quinolin-3-yl)carbonylamino]phenyl]aminoformic acid ethyl ester]"

# Same assay, conditions: Table 3; assay not given; read-out: % Activity (% Efficacy, relative efficacy)
row,Emax,SMILES
1,< 25%,"CCOc1cccc2c(=O)c(C(=O)Nc3ccc(C(C)C)cc3C(F)(F)F)c[nH]c12 [Compound 517, 8-ethoxy-N-[4-isopropyl-2-(trifluoromethyl)phenyl]-4-oxo-1H-quinoline-3-carboxamide]"
2,25 to 100%,"COC(=O)[C@@H]1[C@@H](C)CCN1c1ccc(NC(=O)c2c[nH]c3ccccc3c2=O)c(C(F)(F)F)c1 [Compound 530, (2S,3S)-methyl 3-methyl-1-(4-(4-oxo-1,4-dihydroquinoline-3-carboxamido)-3-(trifluoromethyl)phenyl)pyrrolidine-2-carboxylate]"
3,25 to 100%,"CC(C)(C)c1cc(C(C)(C)C)c(NC(=O)c2c[nH]c3cccc(C(F)(F)F)c3c2=O)cc1O [Compound 520, N-(5-hydroxy-2,4-ditert-butyl-phenyl)-4-oxo-5-(trifluoromethyl)-1H-quinoline-3-carboxamide]"
4,25 to 100%,"O=C(Nc1ccc(C(F)(F)F)c(O)c1)c1c[nH]c2cccc(O)c2c1=O [Compound 700, 5-hydroxy-N-[3-hydroxy-4-(trifluoromethyl)phenyl]-4-oxo-1H-quinoline-3-carboxamide]"
5,< 25%,"Cn1c(=O)oc2ccc(NC(=O)c3c[nH]c4ccccc4c3=O)cc21 [Compound 474, N-(3-methyl-2-oxo-3H-benzooxazol-5-yl)-4-oxo-1H-quinoline-3-carboxamide]"
6,25 to 100%,"Cc1cccc2[nH]cc(C(=O)Nc3cc4[nH]ccc4cc3C(C)(C)C)c(=O)c12 [Compound 565, 5-methyl-4-oxo-N-(5-tert-butyl-1H-indol-6-yl)-1H-quinoline-3-carboxamide]"
7,25 to 100%,"CC(C)(C)OC(=O)[C@@H]1CCCN1c1ccc(NC(=O)c2c[nH]c3ccccc3c2=O)c(C(F)(F)F)c1 [Compound 629, (S)-tert-butyl 1-(4-(4-oxo-1,4-dihydroquinoline-3-carboxamido)-3-(trifluoromethyl)phenyl)pyrrolidine-2-carboxylate]"
8,25 to 100%,"COC(=O)[C@@H]1[C@H]2C[C@H]2CN1c1ccc(NC(=O)c2c[nH]c3ccccc3c2=O)c(C(F)(F)F)c1 [Compound 531, (1S,2S,5R)-methyl 3-(4-(4-oxo-1,4-dihydroquinoline-3-carboxamido)-3-(trifluoromethyl)phenyl)-3-azabicyclo[3.1.0]hexane-2-carboxylate]"
9,25 to 100%,"CC(C)(C)c1ccc(NC(=O)c2c[nH]c3ccccc3c2=O)cc1F [Compound 645, N-(3-fluoro-4-tert-butyl-phenyl)-4-oxo-1H-quinoline-3-carboxamide]"
10,25 to 100%,"Cc1cccc2[nH]cc(C(=O)Nc3ccc(N4CC[C@@H](F)C4)cc3C(F)(F)F)c(=O)c12 [Compound 541, (R)-N-(4-(3-fluoropyrrolidin-1-yl)-2-(trifluoromethyl)phenyl)-5-methyl-4-oxo-1,4-dihydroquinoline-3-carboxamide]"

# Further lines, the compound ahead of its results:
row,SMILES,Emax
1,"N#CCc1ccc(NC(=O)c2c[nH]c3ccccc3c2=O)cc1 [Compound 110, N-[4-(cyanomethyl)phenyl]-4-oxo-1H-quinoline-3-carboxamide]",< 25%
2,"O=C(Nc1ccc2cc[nH]c2c1)c1c(C(F)(F)F)[nH]c2ccccc2c1=O [Compound 184, N-(1H-indol-6-yl)-4-oxo-2-(trifluoromethyl)-1H-quinoline-3-carboxamide]",< 25%
3,"O=C(Nc1ccc2cc[nH]c2c1)c1c[nH]c2ccccc2c1=O [Compound 33, N-(1H-indol-6-yl)-4-oxo-1H-quinoline-3-carboxamide]",25 to 100%
4,"N#Cc1ccc(-c2ccccc2NC(=O)c2c[nH]c3ccccc3c2=O)s1 [Compound 93, N-[2-(5-cyano-2-thienyl)phenyl]-4-oxo-1H-quinoline-3-carboxamide]",25 to 100%
5,"N#Cc1ccccc1NC(=O)c1c[nH]c2ccccc2c1=O [Compound 95, N-(2-cyanophenyl)-4-oxo-1H-quinoline-3-carboxamide]",25 to 100%
6,"COc1ccc(-c2ccccc2NC(=O)c2c[nH]c3ccccc3c2=O)cc1 [Compound 305, N-[2-(4-methoxyphenyl)phenyl]-4-oxo-1H-quinoline-3-carboxamide]",> 100%
7,"COc1nc2ccccc2c(OC)c1C(=O)Nc1ccccc1-c1ccccc1 [Compound 210, 2,4-dimethoxy-N-(2-phenylphenyl)-quinoline-3-carboxamide]",25 to 100%
8,"O=C(Nc1cc2[nH]ccc2cc1C(=O)N1CCCCC1)c1c[nH]c2ccccc2c1=O [Compound 148, 4-Oxo-N-[5-(1-piperidylcarbonyl)-1H-indol-6-yl]-1H-quinoline-3-carboxamide]",25 to 100%
9,"CCOc1cccc(-c2cc(C(C)(C)C)c(O)cc2NC(=O)c2c[nH]c3ccccc3c2=O)c1 [Compound 43, N-[2-(3-ethoxyphenyl)-5-hydroxy-4-tert-butyl-phenyl]-4-oxo-1H-quinoline-3-carboxamide]",25 to 100%
10,"CC(=O)N1CC2(CC2)c2ccc(NC(=O)c3c[nH]c4ccccc4c3=O)cc21 [Compound 175, 4-Oxo-1,4-dihydro-quinoline-3-carboxylic acid N-(1′-Acetyl-1′,2′-dihydrospiro[cyclopropane-1,3′-3H-indol]-6′-yl)-amide]",25 to 100%
11,"O=C(Nc1ccc(Cl)cc1)c1c[nH]c2ccccc2c1=O [Compound 405, N-(4-chlorophenyl)-4-oxo-1H-quinoline-3-carboxamide]",25 to 100%
12,"CC(C)(C)c1ccc(NC(=O)c2cnc3ccccc3c2OCc2ccccc2)cc1O [Compound 275, 4-Benzyloxy-N-(3-hydroxy-4-tert-butyl-phenyl)-quinoline-3-carboxamide]",25 to 100%
13,"NS(=O)(=O)c1ccc(NC(=O)c2c[nH]c3ccccc3c2=O)cc1 [Compound 165, 4-oxo-N-(4-sulfamoylphenyl)-1H-quinoline-3-carboxamide]",< 25%
14,"CCOC(=O)Nc1ccc(CC)c(NC(=O)c2c[nH]c3ccccc3c2=O)c1 [Compound 472, [4-ethyl-3-[(4-oxo-1H-quinolin-3-yl)carbonylamino]phenyl]aminoformic acid ethyl ester]",25 to 100%
15,"O=C(Nc1ccccc1)c1c[nH]c2cc(C(F)(F)F)ccc2c1=O [Compound 346, 4-oxo-N-phenyl-7-(trifluoromethyl)-1H-quinoline-3-carboxamide]",25 to 100%
16,"O=C(Nc1ccccc1C(O)c1ccccc1)c1c[nH]c2ccccc2c1=O (centres unmarked) [Compound 228, N-[2-(hydroxy-phenyl-methyl)phenyl]-4-oxo-1H-quinoline-3-carboxamide]",25 to 100%
17,"Cc1cccc(NC(=O)c2c[nH]c3ccccc3c2=O)c1C#N [Compound 201, N-(2-cyano-3-methyl-phenyl)-4-oxo-1H-quinoline-3-carboxamide]",< 25%
18,"COc1c(C(=O)Nc2ccc(C(C)(C)C)c(O)c2)cnc2ccccc12 [Compound 415, N-(3-Hydroxy-4-tert-butyl-phenyl)-4-methoxy-quinoline-3-carboxamide]",25 to 100%
19,"CCOc1ccc(-c2ccccc2NC(=O)c2c[nH]c3ccccc3c2=O)cc1 [Compound 348, N-[2-(4-ethoxyphenyl)phenyl]-4-oxo-1H-quinoline-3-carboxamide]",25 to 100%
20,"Cc1cccc(-c2ccccc2NC(=O)c2c[nH]c3ccccc3c2=O)c1C [Compound 401, N-[2-(2,3-dimethylphenyl)phenyl]-4-oxo-1H-quinoline-3-carboxamide]",25 to 100%
21,"COc1cc(NC(=O)c2c[nH]c3ccccc3c2=O)ccc1C(C)(C)C [Compound 2, N-(3-methoxy-4-tert-butyl-phenyl)-4-oxo-1H-quinoline-3-carboxamide]",25 to 100%
